US4543408A, “Stable S-adenosylmethionine salts, the process for their preparation, and therapeutic compositions which contain them as active principle” (Bioresearch S.p.A., priority 1981, dated 1985)

Columns and labels:
[1] = Residual moisture; type: physicochemical
[2] = type: physicochemical; details: solid salt storage; for degradation at 45° C. after 60 days: 1440 h; for degradation at 45° C. after 120 days: 2880 h; for degradation at 45° C. after 180 days: 4320 h; for degradation at 45° C. after 240 days: 5760 h; for degradation at 45° C. after 360 days: 8640 h
Experimental: Stability tests were carried out on the salts prepared in the described manner, by keeping the product in an oven temperature controlled at 45° C. and determining the percentage of residual salt at fixed times. The tests were carried out in comparison with SAM.nHCl salts in which n=1,2 and 3, prepared by the known method (U.S. Pat. No. 2,969,353), and in comparison with SAM.nH2 SO4 salts in which n=0.5,1 and 1.5, also prepared by the known method (West German patent application No. 1,803,978).
The following tables show the percentages of decomposed salt at the times indicated:
Analytical conditions used:
SAM retention time: about 400 seconds.

[3] = physchem; details: water
[4] = prior-art salts; cited from earlier work
[5] = Wide pharmacological screening trial; type: in vivo; details: independent of the anion bonded to the SAM
From the text: It was established that the activity of the new salts depends substantially on the capacity of the SAM^+ ion released in the organism to act as a donor of methyl groups, as the natural substrate of a large number of transmethylase enzymes which catalyse fundamental reactions of the lipid, protide and glucide metabolism.

[6] = Tables 1-4, salts lyophilised without support

| Compound | degradation at 45° C. after 60 days [2] | degradation at 45° C. after 120 days [2] | degradation at 45° C. after 180 days [2] | degradation at 45° C. after 240 days [2] | degradation at 45° C. after 360 days [2] | residual moisture [1, 6] | further results |
| --- | --- | --- | --- | --- | --- | --- | --- |
| C[S+](CCC(N)C(=O)[O-])CC1OC(n2cnc3c(N)ncnc32)C(O)C1O (stereo not drawn) [SAM.4HCl.0.4H2 O] | 5% | 10% | 14% | 17% | 20% | – | residual moisture ([1]; Tables 1-4, salts lyophilised without support, listed as SAM.nHCl, n=4): 1% |
| C[S+](CCC(N)C(=O)[O-])CC1OC(n2cnc3c(N)ncnc32)C(O)C1O (stereo not drawn) [SAM.2H2 SO4.0.4H2 O] | 5% | 10% | 14% | 17% | 20% | – | residual moisture ([1]; Tables 1-4, salts lyophilised without support, listed as SAM.nH2 SO4, n=2): 1% |
| C[S+](CCC(N)C(=O)[O-])CC1OC(n2cnc3c(N)ncnc32)C(O)C1O (stereo not drawn) [SAM.nH2 SO4, n=1.5, reference compound] | 30% | 60% | 80% | 100% | 100% | 0.8% | – |
| C[S+](CCC(N)C(=O)[O-])CC1OC(n2cnc3c(N)ncnc32)C(O)C1O (stereo not drawn) [SAM.nH2 SO4, n=0.5, reference compound] | 100% | 100% | 100% | 100% | 100% | 0.2% | – |
| C[S+](CCC(N)C(=O)[O-])CC1OC(n2cnc3c(N)ncnc32)C(O)C1O (stereo not drawn) [SAM.6HCl.0.7H2 O] | 5% | 10% | 14% | 17% | 20% | – | residual moisture ([1]; Tables 1-4, salts lyophilised without support, listed as SAM.nHCl, n=6): 2% |
| C[S+](CCC(N)C(=O)[O-])CC1OC(n2cnc3c(N)ncnc32)C(O)C1O (stereo not drawn) [SAM.2HCl.nH2 SO4, n=2] | 5% | 10% | 14% | 17% | 20% | 2% | – |
| C[S+](CCC(N)C(=O)[O-])CC1OC(n2cnc3c(N)ncnc32)C(O)C1O (stereo not drawn) [SAM.2.5H2 SO4] | – | 1.5% | 3% | 4.5% | 5% | – | residual moisture ([1]; Tables 1-4, salts lyophilised without support, listed as SAM.nH2 SO4, n=3.5): 1.5%; solubility [3]: > 200 mg/mL |
| C[S+](CCC(N)C(=O)[O-])CC1OC(n2cnc3c(N)ncnc32)C(O)C1O (stereo not drawn) [SAM.1.5H2 SO4.nHCl, n=2] | – | 1.5% | 3% | 4.5% | 5% | 1.5% | residual moisture ([1]; Tables 1-4, salts lyophilised without support, listed as SAM.2HCl.nH2 SO4, n=1.5): 1.5% |
| C[S+](CCC(N)C(=O)[O-])CC1OC(n2cnc3c(N)ncnc32)C(O)C1O (stereo not drawn) [SAM.2HCl.nH2 SO4, n=1] | 5% | 10% | 14% | 17% | 20% | 1% | – |
| C[S+](CCC(N)C(=O)[O-])CC1OC(n2cnc3c(N)ncnc32)C(O)C1O (stereo not drawn) [SAM.nHCl, n=1, reference compound] | 100% | 100% | 100% | 100% | 100% | 0.2% | – |
| C[S+](CCC(N)C(=O)[O-])CC1OC(n2cnc3c(N)ncnc32)C(O)C1O (stereo not drawn) [SAM.1.5H2 SO4.nHCl, n=1] | 5% | 10% | 14% | 17% | 20% | 1% | – |
| C[S+](CCC(N)C(=O)[O-])CC1OC(n2cnc3c(N)ncnc32)C(O)C1O (stereo not drawn) [disulphatediparatoluene sulphonate, SAM disulphatediparatoluene sulphonate] | – | – | – | – | – | – | temperature up to which the salt is stable [4]: up to 45 °C |
| C[S+](CCC(N)C(=O)[O-])CC1OC(n2cnc3c(N)ncnc32)C(O)C1O (stereo not drawn) [SAM.1.5H2 SO4.nHCl, n=3] | 5% | 10% | 14% | 17% | 20% | 2% | – |
| C[S+](CCC(N)C(=O)[O-])CC1OC(n2cnc3c(N)ncnc32)C(O)C1O (stereo not drawn) [SAM.nHCl, n=2, reference compound] | 80% | 100% | 100% | 100% | 100% | 0.5% | – |
| C[S+](CCC(N)C(=O)[O-])CC1OC(n2cnc3c(N)ncnc32)C(O)C1O (stereo not drawn) [SAM.nH2 SO4, n=1, reference compound] | 80% | 100% | 100% | 100% | 100% | 0.5% | – |
| C[S+](CCC(N)C(=O)[O-])CC1OC(n2cnc3c(N)ncnc32)C(O)C1O (stereo not drawn) [SAM.3H2 SO4.0.7H2 O] | 5% | 10% | 14% | 17% | 20% | – | residual moisture ([1]; Tables 1-4, salts lyophilised without support, listed as SAM.nH2 SO4, n=3): 2% |
| C[S+](CCC(N)C(=O)[O-])CC1OC(n2cnc3c(N)ncnc32)C(O)C1O (stereo not drawn) [SAM.2HCl.nH2 SO4, n=0.5, reference compound] | 30% | 60% | 80% | 100% | 100% | 0.8% | – |
| C[S+](CCC(N)C(=O)[O-])CC1OC(n2cnc3c(N)ncnc32)C(O)C1O (stereo not drawn) [SAM.nHCl, n=3, reference compound] | 30% | 60% | 80% | 100% | 100% | 0.8% | – |
| C[S+](CCC(N)C(=O)[O-])CC1OC(n2cnc3c(N)ncnc32)C(O)C1O (stereo not drawn) [triparatoluene sulphonate, SAM triparatoluene sulphonate] | – | – | – | – | – | – | temperature up to which the salt is stable [4]: up to 25 °C |
| C[S+](CCC(N)C(=O)[O-])CC1OC(n2cnc3c(N)ncnc32)C(O)C1O (stereo not drawn) [SAM.5HCl] | – | 1.5% | 3% | 4.5% | 5% | – | residual moisture ([1]; Tables 1-4, salts lyophilised without support, listed as SAM.nHCl, n=5): 1.5%; residual moisture ([1]; lyophilised without support, with mannitol or with Aerosil): 1.5%; activity and toxicity characteristics [5]: highly interesting activity and toxicity characteristics |
